# Results published in US20260347373A1, “HETEROCYCLIC COMPOUNDS, COMPOSITIONS THEREOF, AND METHODS OF TREATMENT THEREWITH” (BeOne Medicines I GmbH, priority 2023, published 2026).
# Molecular target: KRAS G12D (Homo sapiens, UniProt P01116, G12D)
# Experiment: KRAS G12D Probe Displacement Assay (TR-FRET, GDP-loaded)
# Assay type: binding
# Details: KRAS G12D, read-out: KRAS^G12D Probe Displacement Assay IC50
# Description: (§1) The synthetic routes of probe 1 and 2, which have been disclosed in PCT/CN2022/070676, are hereby incorporated herein.
# Sequence of KRAS G12D (P01116 1-188 isoform P01116-2 G12D): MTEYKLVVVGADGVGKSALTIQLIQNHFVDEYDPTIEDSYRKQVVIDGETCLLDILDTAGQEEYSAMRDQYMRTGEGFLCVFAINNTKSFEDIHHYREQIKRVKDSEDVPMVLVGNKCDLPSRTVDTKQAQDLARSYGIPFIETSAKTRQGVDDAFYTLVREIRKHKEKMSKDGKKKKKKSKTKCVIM
row,SMILES,IC50
1,"Cc1cc(N)cc(-c2nc3c4c(nc(OCC5(C)COCC5N(C)C)nc4c2F)N2C[C@H]4CC[C@H](N4)[C@H]2CCO3)c1C(F)(F)F (mixture of isomers) [Example 15, 4-((((6aR,7S,10R)-2-(5-amino-3-methyl-2-(trifluoromethyl)phenyl)-1-fluoro-5,6,6a,7,8,9,10,11-octahydro-4-oxa-3,11a,12,14,15-pentaaza-7,10-methanocyclohepta[4,5]cycloocta [1,2,3-de]naphthalen-13-yl)oxy)methyl)-N,N,4-trimethyltetrahydrofuran-3-amine]",0.3 to 3 nM
2,"CN(C)CC1(COc2nc3c4c(nc(-c5cc(N)cc(Cl)c5C(F)(F)F)c(F)c4n2)OCC[C@@H]2[C@@H]4CC[C@H](CN32)N4)CC1(F)F (mixture of isomers) [Example 18, 3-chloro-5-((6aR,7S,10R)-13-((1-((dimethylamino)methyl)-2,2-difluorocyclopropyl)methoxy)-1-fluoro-5,6,6a,7,8,9,10,11-octahydro-4-oxa-3,11a,12,14,15-pentaaza-7,10-methanocyclohepta[4,5]cycloocta [1,2,3-de]naphthalen-2-yl)-4-(trifluoromethyl)aniline]",< 0.3 nM
3,"CO[C@H]1CCN(C)[C@@H]1C(C)Oc1nc2c3c(nc(-c4cc(N)cc(C)c4C(F)(F)F)c(F)c3n1)OCC[C@@H]1[C@@H]3CC[C@H](CN21)N3 (single isomer, unassigned) [Example 76]",0.3 to 3 nM
4,"Cc1cc(N)cc(-c2nc3c4c(nc(OCC5(CN6CCCC6CO)CC5)nc4c2F)N2C[C@H]4CC[C@H](N4)[C@H]2CCO3)c1C(F)(F)F (single isomer, unassigned) [Example 125]",< 0.3 nM
5,"CO[C@@H]1C[C@@H](C(C)Oc2nc3c4c(nc(-c5cc(N)cc(C)c5C(F)(F)F)c(F)c4n2)OCC[C@@H]2[C@@H]4CC[C@H](CN32)N4)N(C)C1 (single isomer, unassigned) [Example 145]",0.3 to 3 nM
6,Cc1cc(N)cc(-c2nc3c4c(nc(O[C@@H]5CCOC[C@H]5N(C)C)nc4c2F)N2C[C@H]4CC[C@H](N4)[C@H]2CCO3)c1C(F)(F)F [Example 7],3 to 1000 nM
7,"Cc1cc(N)cc(-c2nc3c4c(nc(O[C@H]5CCOC[C@@H]5N(C)C)nc4c2F)N2C[C@H]4CC[C@H](N4)[C@H]2CCO3)c1C(F)(F)F [Example 9, (3S,4S)-4-(((6aR,7S,10R)-2-(5-amino-3-methyl-2-(trifluoromethyl)phenyl)-1-fluoro-5,6,6a,7,8,9,10,11-octahydro-4-oxa-3,11a,12,14,15-pentaaza-7,10-methanocyclohepta[4,5]cycloocta [1,2,3-de]naphthalen-13-yl)oxy)-N,N-dimethyltetrahydro-2H-pyran-3-amine]",3 to 1000 nM
8,"Cc1cc(N)cc(-c2nc3c4c(nc(O[C@@H]5COCC[C@H]5N(C)C)nc4c2F)N2C[C@H]4CC[C@H](N4)[C@H]2CCO3)c1C(F)(F)F [Example 10, (3S,4R)-3-(((6aR,7S,10R)-2-(5-amino-3-methyl-2-(trifluoromethyl)phenyl)-1-fluoro-5,6,6a,7,8,9,10,11-octahydro-4-oxa-3,11a,12,14,15-pentaaza-7,10-methanocyclohepta[4,5]cycloocta [1,2,3-de]naphthalen-13-yl)oxy)-N,N-dimethyltetrahydro-2H-pyran-4-amine]",3 to 1000 nM
9,"Cc1cc(N)cc(-c2nc3c4c(nc(O[C@H]5CCOC[C@H]5N(C)C)nc4c2F)N2C[C@H]4CC[C@H](N4)[C@H]2CCO3)c1C(F)(F)F [Example 11, (3R,4S)-4-(((6aR,7S,10R)-2-(5-amino-3-methyl-2-(trifluoromethyl)phenyl)-1-fluoro-5,6,6a,7,8,9,10,11-octahydro-4-oxa-3,11a,12,14,15-pentaaza-7,10-methanocyclohepta[4,5]cycloocta [1,2,3-de]naphthalen-13-yl)oxy)-N,N-dimethyltetrahydro-2H-pyran-3-amine]",3 to 1000 nM
10,"Cc1cc(N)cc(-c2nc3c4c(nc(O[C@H]5COCC[C@H]5N(C)C)nc4c2F)N2C[C@H]4CC[C@H](N4)[C@H]2CCO3)c1C(F)(F)F [Example 12, (3R,4R)-3-(((6aR,7S,10R)-2-(5-amino-3-methyl-2-(trifluoromethyl)phenyl)-1-fluoro-5,6,6a,7,8,9,10,11-octahydro-4-oxa-3,11a,12,14,15-pentaaza-7,10-methanocyclohepta[4,5]cycloocta [1,2,3-de]naphthalen-13-yl)oxy)-N,N-dimethyltetrahydro-2H-pyran-4-amine]",3 to 1000 nM
11,"Cc1cc(N)cc(-c2nc3c4c(nc(OC[C@H]5COC[C@@H]5N(C)C)nc4c2F)N2C[C@H]4CC[C@H](N4)[C@H]2CCO3)c1C(F)(F)F [Example 14, (3R,4R)-4-((((6aR,7S,10R)-2-(5-amino-3-methyl-2-(trifluoromethyl)phenyl)-1-fluoro-5,6,6a,7,8,9,10,11-octahydro-4-oxa-3,11a,12,14,15-pentaaza-7,10-methanocyclohepta[4,5]cycloocta [1,2,3-de]naphthalen-13-yl)oxy)methyl)-N,N-dimethyltetrahydrofuran-3-amine]",3 to 1000 nM
12,"Cc1cc(N)cc(-c2nc3c4c(nc(O[C@H]5COC[C@H]5N(C)C)nc4c2F)N2C[C@H]4CC[C@H](N4)[C@H]2CCO3)c1C(F)(F)F [Example 39, (3R,4R)-4-(((6aR,7S,10R)-2-(5-amino-3-methyl-2-(trifluoromethyl)phenyl)-1-fluoro-5,6,6a,7,8,9,10,11-octahydro-4-oxa-3,11a,12,14,15-pentaaza-7,10-methanocyclohepta[4,5]cycloocta [1,2,3-de]naphthalen-13-yl)oxy)-N,N-dimethyltetrahydrofuran-3-amine]",3 to 1000 nM
13,"Cc1cc(N)cc(-c2nc3c4c(nc(O[C@H]5COC[C@@H]5N(C)C)nc4c2F)N2C[C@H]4CC[C@H](N4)[C@H]2CCO3)c1C(F)(F)F [Example 40, (3S,4R)-4-(((6aR,7S,10R)-2-(5-amino-3-methyl-2-(trifluoromethyl)phenyl)-1-fluoro-5,6,6a,7,8,9,10,11-octahydro-4-oxa-3,11a,12,14,15-pentaaza-7,10-methanocyclohepta[4,5]cycloocta [1,2,3-de]naphthalen-13-yl)oxy)-N,N-dimethyltetrahydrofuran-3-amine]",3 to 1000 nM
14,"Cc1cc(N)cc(-c2nc3c4c(nc(OCC5(CN6CCn7ncnc7C6)CC5)nc4c2F)N2C[C@H]4CC[C@H](N4)[C@H]2CCO3)c1C(F)(F)F [Example 109, 3-((6aR,7S,10R)-13-((1-((5,6-dihydro-[1,2,4]triazolo[1,5-a]pyrazin-7(8H)-yl)methyl)cyclopropyl)methoxy)-1-fluoro-5,6,6a,7,8,9,10,11-octahydro-4-oxa-3,11a, 12,14,15-pentaaza-7,10-methanocyclohepta [4,5]cycloocta [1,2,3-de]naphthalen-2-yl)-5-methyl-4-(trifluoromethyl)aniline]",3 to 1000 nM
15,"COC1CN(C)CC(C)(COc2nc3c4c(nc(-c5cc(N)cc(C)c5C(F)(F)F)c(F)c4n2)OCC[C@@H]2[C@@H]4CC[C@H](CN32)N4)C1 (stereo partly drawn) [Example 127, 3-((6aR,7S,10R)-1-fluoro-13-((5-methoxy-1,3-dimethylpiperidin-3-yl)methoxy)-5,6,6a,7,8,9,10,11-octahydro-4-oxa-3,11a,12,14,15-pentaaza-7,10-methanocyclohepta[4,5]cycloocta[1,2,3-de]naphthalen-2-yl)-5-methyl-4-(trifluoromethyl)aniline]",< 0.3 nM
16,"COC1CN(C)CC(C)(COc2nc3c4c(nc(-c5cc(N)cc(C)c5C(F)(F)F)c(F)c4n2)OCC[C@@H]2[C@@H]4CC[C@H](CN32)N4)C1 (stereo partly drawn) [Example 129, 3-((6aR,7S,10R)-1-fluoro-13-((5-methoxy-1,3-dimethylpiperidin-3-yl)methoxy)-5,6,6a,7,8,9,10,11-octahydro-4-oxa-3,11a,12,14,15-pentaaza-7,10-methanocyclohepta[4,5]cycloocta[1,2,3-de]naphthalen-2-yl)-5-methyl-4-(trifluoromethyl)aniline]",3 to 1000 nM
17,"CCN1CC(F)CC(C)(COc2nc3c4c(nc(-c5cc(N)cc(C)c5C(F)(F)F)c(F)c4n2)OCC[C@@H]2[C@@H]4CC[C@H](CN32)N4)C1 (stereo partly drawn) [Example 203, 3-((6aR,7S,10R)-13-((1-ethyl-5-fluoro-3-methylpiperidin-3-yl)methoxy)-1-fluoro-5,6,6a,7,8,9,10,11-octahydro-4-oxa-3,11a,12,14,15-pentaaza-7,10-methanocyclohepta[4,5]cycloocta[1,2,3-de]naphthalen-2-yl)-5-methyl-4-(trifluoromethyl)aniline]",0.3 to 3 nM

# Same assay, conditions: KRAS^G12D Probe Displacement Assay IC50, KRAS G12D
row,SMILES,IC50
1,"COC1CN(CC2(COc3nc4c5c(nc(-c6cc(N)cc(C)c6C(F)(F)F)c(F)c5n3)OCC[C@@H]3[C@@H]5CC[C@H](CN43)N5)CC2(F)F)C1 (single isomer, unassigned) [Example 21]",0.3 to 3 nM

# Molecular target: WT KRAS (Homo sapiens, UniProt P01116)
# Experiment: KRAS WT Probe Displacement Assay (TR-FRET, GDP-loaded)
# Assay type: binding
# Details: KRAS WT, read-out: KRAS^WT Probe Displacement Assay IC50
# Description: as §1
# Sequence of WT KRAS (P01116 1-188 isoform P01116-2): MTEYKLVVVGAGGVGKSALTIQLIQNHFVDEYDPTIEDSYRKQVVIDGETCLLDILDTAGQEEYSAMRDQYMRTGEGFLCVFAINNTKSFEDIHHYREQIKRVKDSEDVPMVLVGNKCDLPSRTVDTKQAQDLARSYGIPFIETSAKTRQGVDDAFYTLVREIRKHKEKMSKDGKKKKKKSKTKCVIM
row,SMILES,IC50
1,"CN(C)CC1(COc2nc3c4c(nc(-c5cc(N)cc(Cl)c5C(F)(F)F)c(F)c4n2)OCC[C@@H]2[C@@H]4CC[C@H](CN32)N4)CC1(F)F (mixture of isomers) [Example 18, 3-chloro-5-((6aR,7S,10R)-13-((1-((dimethylamino)methyl)-2,2-difluorocyclopropyl)methoxy)-1-fluoro-5,6,6a,7,8,9,10,11-octahydro-4-oxa-3,11a,12,14,15-pentaaza-7,10-methanocyclohepta[4,5]cycloocta [1,2,3-de]naphthalen-2-yl)-4-(trifluoromethyl)aniline]",3 to 1000 nM
2,"Cc1cc(N)cc(-c2nc3c4c(nc(OCC5(CN6CC7CC7C6)CC5(F)F)nc4c2F)N2C[C@H]4CC[C@H](N4)[C@H]2CCO3)c1C(F)(F)F (single isomer, unassigned) [Example 29]",0.3 to 3 nM
3,"Cc1cc(N)cc(-c2nc3c4c(nc(OCC5(CN6CCC7(C6)CC7(F)F)CC5)nc4c2F)N2C[C@H]4CC[C@H](N4)[C@H]2CCO3)c1C(F)(F)F (single isomer, unassigned) [Example 139]",3 to 1000 nM
4,"Cc1cc(N)cc(-c2nc3c4c(nc(OCC5(C)CN(C)CC/C5=C\F)nc4c2F)N2C[C@H]4CC[C@H](N4)[C@H]2CCO3)c1C(F)(F)F (single isomer, unassigned) [Example 237]",0.3 to 3 nM
5,"Cc1cc(N)cc(-c2nc3c4c(nc(OCC5(C)CN(CC6CC6)CC/C5=C\F)nc4c2F)N2C[C@H]4CC[C@H](N4)[C@H]2CCO3)c1C(F)(F)F (single isomer, unassigned) [Example 239]",0.3 to 3 nM
6,"Cc1cc(N)cc(-c2nc3c4c(nc(OC[C@]5(CN(C)C)CC5(F)F)nc4c2F)N2C[C@H]4CC[C@H](N4)[C@H]2CC(C)O3)c1C(F)(F)F (single isomer, unassigned) [Example 249]",3 to 1000 nM
